Earlier results in patent US20180243418A1, “SYSTEMS AND METHODS FOR TARGETED CANCER THERAPIES” (American University of Sharjah, priority 2017, published 2018).

Key:
[1] = system: human and mice melanoma cells; conditions: melanoma cells treated for about 8 hours
VX2 carcinoma cells = conditions: rabbits implanted with VX2 carcinoma cells, intravenous

For `COc1cccc2c1C(=O)c1c(O)c3c(c(O)c1C2=O)C[C@@](O)(C(=O)CO)C[C@@H]3O[C@H]1C[C@H](N)[C@H](O)[C@H](C)O1` [free Dox, doxorubicin], the “accumulation in the nucleus, of the initial amount” value [1] is given as “about 26%”, the “initial concentration detected in the cell cytoplasm” value [1] is given as “about 0.5%” and the “concentration of Dox in tumors” value (VX2 carcinoma cells) is given as “about 4.0±1.0 μg Dox/g tissues”.
